Our source for the solubility and IC50 values is USRE47302E1 (ONYX THERAPEUTICS INC., priority 2013, dated 2019).

In brackets after ≈: the same amount, converted by molar mass.

One data set in a line: Solubility pH 7. As to conditions: pH 7, aqueous buffer.
Data set [1] addresses T1, immunoproteasome subunit LMP7 (Homo sapiens, UniProt P28062).
T1 construct: Lysate from the human acute lymphoblastic leukemia cell line, MOLT-4; endogenous in cells; host or cells: MOLT-4
The data set can be described thus: Proteasome active-site ELISA (ProCISE), LMP7, MOLT-4 lysate. It is filed as biochemical. The note with it: MOLT4 lysate, 1 h continuous treatment, 25° C. In outline:
(§1)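 MOLT-4 cell lysate treated 1 h at 25 °C with compound; probe-bound subunits denatured, pulled down on streptavidin beads and detected with subunit-specific antibodies plus HRP chemiluminescence.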

Data set [2] concerns the target T2, proteasome subunit β5 (beta5) (Homo sapiens, UniProt P28074).
T2 construct: Lysate from the human acute lymphoblastic leukemia cell line, MOLT-4; endogenous in cells; host or cells: MOLT-4
As to the kind of experiment: Proteasome active-site ELISA (ProCISE), beta5, MOLT-4 lysate. The note with it: MOLT4 lysate, human, 1 h continuous treatment, 25° C. It is filed as biochemical. Put shortly: as §1
Background: In an ELISA, binding on a coated surface is turned into a signal by an enzyme label.

The solubility is the concentration that dissolves in the medium under given conditions. High values mean much dissolved substance, low ones little dissolved substance. What is called IC50 is the concentration that inhibits the measured activity by half. Lower therefore signals greater potency.

In turn, `COc1ccc(C[C@H](NC(=O)[C@H](C)NC(=O)CN2CCC(O)CC2)C(=O)N[C@@H](CC2=CCCC2)C(=O)[C@@]2(C)CO2)cc1` [Compound C-1118, (S)-N-((S)-3-(Cyclopent-1-en-1-yl)-1-((R)-2-methyloxiran-2-yl)-1-oxopropan-2-yl)-2-((S)-2-(2-(4-hydroxypiperidin-1-yl)acetamido)propanamido)-3-(4-methoxyphenyl)propanamide] displayed a solubility in “Solubility pH 7” of 6260 µg/mL (≈ 10.7 mM). Also, the 50% inhibitory concentration (IC50) in data set [1] worked out at 43.8 nM; in data set [2] it was 407 nM.
`C[C@H](NC(=O)CN1CCOCC1)C(=O)N[C@@H](Cc1cc[n+]([O-])cc1)C(=O)N[C@@H](CC1CCCC1)C(=O)[C@@]1(C)CO1` [Compound C-1119, 4-((S)-3-(((S)-3-cyclopentyl-1-((R)-2-methyloxiran-2-yl)-1-oxopropan-2-yl)amino)-2-((S)-2-(2-morpholinoacetamido)propanamido)-3-oxopropyl)pyridine 1-oxide]: in “Solubility pH 7”, the concentration in solution (solubility) came to 10600 µg/mL (≈ 18.9 mM). For the same molecule, the concentration for half-maximal inhibition (IC50) is 833 nM in data set [1] and 1390 nM in data set [2].
Consider `C[C@H](NC(=O)CN1CCOCC1)C(=O)N[C@@H](Cc1ccc(S(C)(=O)=O)cc1)C(=O)N[C@@H](CC1=CCCC1)C(=O)[C@@]1(C)CO1` [Compound C-1125, (S)-N-((S)-3-(cyclopent-1-en-1-yl)-1-((R)-2-methyloxiran-2-yl)-1-oxopropan-2-yl)-3-(4-(methylsulfonyl)phenyl)-2-((S)-2-(2-morpholinoacetamido)propanamido)propanamide], for which the concentration in solution in the data set “Solubility pH 7” (solubility) came to 7720 µg/mL (≈ 12.5 mM). Moreover, the figures for the half-inhibitory concentration (IC50) in data set [1] and in data set [2] were 97.6 nM and 566 nM, respectively.
For `COc1ccc(C[C@H](NC(=O)[C@H](C)NC(=O)CN2CCS(=O)(=O)CC2)C(=O)N[C@@H](CC2=CCCCC2)C(=O)[C@@]2(C)CO2)cc1` [Compound C-1127, (S)-N-((S)-3-(cyclohex-1-en-1-yl)-1-((R)-2-methyloxiran-2-yl)-1-oxopropan-2-yl)-2-((S)-2-(2-(1,1-dioxidothiomorpholino)acetamido)propanamido)-3-(4-methoxyphenyl) propanamide] the same measures were 1520 µg/mL (≈ 2.4 mM), 315 nM and 4170 nM.
For `Cc1ccc(C[C@H](NC(=O)[C@H](C)NC(=O)CN2CCOCC2)C(=O)N[C@@H](CC2=CCCC2)C(=O)[C@@]2(C)CO2)cc1O` [Compound C-1129, (S)-N-((S)-3-(cyclopent-1-en-1-yl)-1-((R)-2-methyloxiran-2-yl)-1-oxopropan-2-yl)-3-(3-hydroxy-4-methylphenyl)-2-((S)-2-(2-morpholinoacetamido)propanamido) propanamide] the same measures were 1760 µg/mL (≈ 3.08 mM), 76.4 nM and 793 nM.
Taken in the same sequence, the figures for `COc1ccc(C[C@H](NC(=O)[C@H](CC#N)NC(=O)CN2CCOCC2)C(=O)N[C@@H](CC2=CCCC2)C(=O)[C@@]2(C)CO2)cc1` [Compound C-1135, (S)-3-Cyano-N-((S)-1-(((S)-3-(cyclopent-1-en-1-yl)-1-((R)-2-methyloxiran-2-yl)-1-oxopropan-2-yl)amino)-3-(4-methoxyphenyl)-1-oxopropan-2-yl)-2-(2-morpholinoacetamido)propanamide] were 1860 µg/mL (≈ 3.13 mM), 31 nM and 289 nM.
`CCc1ccc(C[C@H](NC(=O)[C@H](C)NC(=O)CN2CCOCC2)C(=O)N[C@@H](CC2=CCCC2)C(=O)[C@@]2(C)CO2)cc1O` [Compound C-1136, (S)-N-((S)-3-(cyclopent-1-en-1-yl)-1-((R)-2-methyloxiran-2-yl)-1-oxopropan-2-yl)-3-(4-ethyl-3-hydroxyphenyl)-2-((S)-2-(2-morpholinoacetamido)propanamido)propanamide]: the solubility in “Solubility pH 7” was 54.4 µg/mL (≈ 0.093 mM). The IC50 in data set [1] stood at 46.2 nM; in data set [2], 402 nM.
